Results on 23 compounds are retold here after patent US20240043439A1, “COMPOUNDS AS C5AR INHIBITORS” (Kira Pharmaceuticals (Suzhou) Ltd., priority 2020, published 2024).

For orientation: IC50 means the concentration that inhibits the measured activity by half.

Experiment [1] has as its target human C5a receptor (C5aR) (Homo sapiens (Human), UniProt P21730). The experiment in a line: Inhibition of C5a-C5aR binding (biotinylated human C5a, U937/C5aR cells, FACS). Put shortly:
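Binding read by flow cytometry as FITC-streptavidin signal (30 min on ice) on washed cells after a 120 min on-ice incubation of compound with biotinylated human C5a (30 nM working solution). Cells used were C5aR-transfected U937, suspended at 3×10^6 cells/ml in PBS containing 0.1% BSA.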

In a further experiment the target is C5aR (Homo sapiens (Human), UniProt P21730). The experiment in a line: Calcium mobilization (U937/C5aR or HEK293/C5aR cells, FLIPR). In kind it is cell-based. As to conditions: agonist human C5a at EC80, FLIPR. Put shortly: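 FLIPR calcium-flux read-out using Fluo-4 Direct-loaded C5aR-expressing U937 or HEK293 cells stimulated with human C5a at its EC80. Compound was applied for 60 min before dye loading (50 min at 37 °C plus 10 min at room temperature) and agonist addition.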
Chain of C5aR (P21730 whole entry): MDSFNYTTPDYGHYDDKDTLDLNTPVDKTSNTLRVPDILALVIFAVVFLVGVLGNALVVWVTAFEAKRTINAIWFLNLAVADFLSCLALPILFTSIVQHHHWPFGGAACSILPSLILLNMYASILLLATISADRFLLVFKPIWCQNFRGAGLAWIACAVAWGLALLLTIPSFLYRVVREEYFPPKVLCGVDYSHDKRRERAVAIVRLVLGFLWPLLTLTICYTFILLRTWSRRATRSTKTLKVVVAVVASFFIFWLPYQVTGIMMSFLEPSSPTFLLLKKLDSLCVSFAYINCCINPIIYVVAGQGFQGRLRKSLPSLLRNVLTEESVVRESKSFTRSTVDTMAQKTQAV
(A change in cytosolic calcium serves as a functional read-out for many receptors and channels.)

Bounds are passed on as bounds.

Chain of human C5a receptor (C5aR) (P21730 whole entry): as above

As to `Cc1ccc(NC(=O)[C@H]2CCCN(S(=O)(=O)c3ccccc3C)[C@H]2c2ccc(NC3CCCC3)cc2)cc1C(F)(F)F` [Compound 22, (2R,3S)-2-(4-(cyclopentylamino)phenyl)-N-(4-methyl-3-(trifluoromethyl)phenyl)-1-(o-tolylsulfonyl)piperidine-3-carboxamide], the results for the IC50 (in experiment [1]; at C5aR) were 500 to 2000 nM and greater than 10 µM, respectively.

With `COc1ccccc1S(=O)(=O)N1CCC[C@H](C(=O)Nc2ccc(C)c(C(F)(F)F)c2)[C@@H]1c1ccc(NC2CCCC2)cc1` [Compound 23, (2R,3S)-2-(4-(cyclopentylamino)phenyl)-1-((2-methoxyphenyl)sulfonyl)-N-(4-methyl-3-(trifluoromethyl)phenyl)piperidine-3-carboxamide], the IC50 in experiment [1] was 2000 to 5000 nM; at C5aR, 2 to 10 µM.

As for `Cc1ccc(NC(=O)[C@H]2CCCN(S(=O)(=O)c3ccccc3OC(F)(F)F)[C@H]2c2ccc(NC3CCCC3)cc2)cc1C(F)(F)F` [Compound 24, (2R,3S)-2-(4-(cyclopentylamino)phenyl)-N-(4-methyl-3-(trifluoromethyl)phenyl)-1-((2-(trifluoromethoxy)phenyl)sulfonyl)piperidine-3-carboxamide], the IC50 in experiment [1] is 2000 to 5000 nM; on C5aR it was greater than 10 µM.

Regarding `Cc1ccc(NC(=O)[C@H]2CCCN(S(=O)(=O)c3ccccc3F)[C@H]2c2ccc(NC3CCCC3)cc2)cc1C(F)(F)F` [Compound 25, (2R,3S)-2-(4-(cyclopentylamino)phenyl)-1-((2-fluorophenyl)sulfonyl)-N-(4-methyl-3-(trifluoromethyl)phenyl)piperidine-3-carboxamide], the IC50 in experiment [1] is 500 to 2000 nM; at C5aR, greater than 10 µM.

On to `Cc1ccc(NC(=O)[C@H]2CCCN(S(=O)(=O)c3ccccc3Cl)[C@H]2c2ccc(NC3CCCC3)cc2)cc1C(F)(F)F` [Compound 26, (2R,3S)-1-((2-chlorophenyl)sulfonyl)-2-(4-(cyclopentylamino)phenyl)-N-(4-methyl-3-(trifluoromethyl)phenyl)piperidine-3-carboxamide], for which the IC50 was 2000 to 5000 nM in experiment [1] and greater than 10 µM at C5aR.

Take `Cc1ccc(NC(=O)[C@H]2CCCN(S(=O)(=O)c3ccccc3Br)[C@H]2c2ccc(NC3CCCC3)cc2)cc1C(F)(F)F` [Compound 27, (2R,3S)-1-((2-bromophenyl)sulfonyl)-2-(4-(cyclopentylamino)phenyl)-N-(4-methyl-3-(trifluoromethyl)phenyl)piperidine-3-carboxamide]: the figures for the IC50 (in experiment [1]; on C5aR) were 2000 to 5000 nM and 2 to 10 µM, respectively.

Take `Cc1ccc(NC(=O)[C@H]2CCCN(S(=O)(=O)c3ccccc3C(F)(F)F)[C@H]2c2ccc(NC3CCCC3)cc2)cc1C(F)(F)F` [Compound 28, (2R,3S)-2-(4-(cyclopentylamino)phenyl)-N-(4-methyl-3-(trifluoromethyl)phenyl)-1-((2-(trifluoromethyl)phenyl)sulfonyl)piperidine-3-carboxamide]: the IC50 in experiment [1] is 2000 to 5000 nM; on C5aR, 2 to 10 µM.

Take `Cc1ccc(NC(=O)[C@H]2CCCN(S(=O)(=O)c3ccccc3S(C)(=O)=O)[C@H]2c2ccc(NC3CCCC3)cc2)cc1C(F)(F)F` [Compound 29, (2R,3S)-2-(4-(cyclopentylamino)phenyl)-N-(4-methyl-3-(trifluoromethyl)phenyl)-1-((2-(methylsulfonyl)phenyl)sulfonyl)piperidine-3-carboxamide]: the IC50 was 2000 to 5000 nM in experiment [1] and 2 to 10 µM on C5aR.

On to `Cc1ccc(NC(=O)[C@H]2CCCN(S(=O)(=O)c3ccccc3C#N)[C@H]2c2ccc(NC3CCCC3)cc2)cc1C(F)(F)F` [Compound 30, (2R,3S)-1-((2-cyanophenyl)sulfonyl)-2-(4-(cyclopentylamino)phenyl)-N-(4-methyl-3-(trifluoromethyl)phenyl)piperidine-3-carboxamide], for which the 50% inhibitory concentration (IC50) in experiment [1] was in the range of 2000 to 5000 nM; at C5aR it was 2 to 10 µM.

On to `Cc1ccc(NC(=O)[C@H]2CCCN(S(=O)(=O)c3ccc4ccccc4c3)[C@H]2c2ccc(NC3CCCC3)cc2)cc1C(F)(F)F` [Compound 32, (2R,3S)-2-(4-(cyclopentylamino)phenyl)-N-(4-methyl-3-(trifluoromethyl)phenyl)-1-(naphthalen-2-ylsulfonyl)piperidine-3-carboxamide], for which the IC50 in experiment [1] is 2000 to 5000 nM; at C5aR, 2 to 10 µM.

Regarding `Cc1ccc(NC(=O)[C@H]2CCCN(S(=O)(=O)c3cccc4ccccc34)[C@H]2c2ccc(NC3CCCC3)cc2)cc1C(F)(F)F` [Compound 33, (2R,3S)-2-(4-(cyclopentylamino)phenyl)-N-(4-methyl-3-(trifluoromethyl)phenyl)-1-(naphthalen-1-ylsulfonyl)piperidine-3-carboxamide], the IC50 in experiment [1] is 2000 to 5000 nM; at C5aR it was 2 to 10 µM.

Regarding `Cc1ccc(NC(=O)[C@H]2CCCN(S(=O)(=O)c3ccccc3)[C@H]2c2ccc(NC3CCCC3)cc2)cc1C(F)(F)F` [Compound 34, (2R,3S)-2-(4-(cyclopentylamino)phenyl)-N-(4-methyl-3-(trifluoromethyl)phenyl)-1-(phenylsulfonyl)piperidine-3-carboxamide], the IC50 in experiment [1] is 2000 to 5000 nM; at C5aR, greater than 10 µM.

Regarding `Cc1ccc(NC(=O)[C@H]2CCCN(S(=O)(=O)c3cccnc3)[C@H]2c2ccc(NC3CCCC3)cc2)cc1C(F)(F)F` [Compound 35, (2R,3S)-2-(4-(cyclopentylamino)phenyl)-N-(4-methyl-3-(trifluoromethyl)phenyl)-1-(pyridin-3-ylsulfonyl)piperidine-3-carboxamide], the values for the IC50 (in experiment [1]; at C5aR) were 2000 to 5000 nM and greater than 10 µM, respectively.

Consider `Cc1ccc(NC(=O)[C@H]2CCCN(S(=O)(=O)c3cccnc3Cl)[C@H]2c2ccc(NC3CCCC3)cc2)cc1C(F)(F)F` [Compound 36, (2R,3S)-1-((2-chloropyridin-3-yl)sulfonyl)-2-(4-(cyclopentylamino)phenyl)-N-(4-methyl-3-(trifluoromethyl)phenyl)piperidine-3-carboxamide], for which the 50% inhibitory concentration (IC50) is 500 to 2000 nM in experiment [1] and 2 to 10 µM on C5aR.

For the compound `Cc1ccc(NC(=O)[C@H]2CCCN(S(=O)(=O)c3c(C)nn(C)c3C)[C@H]2c2ccc(NC3CCCC3)cc2)cc1C(F)(F)F` [Compound 38, (2R,3S)-2-(4-(cyclopentylamino)phenyl)-N-(4-methyl-3-(trifluoromethyl)phenyl)-1-((1,3,5-trimethyl-1H-pyrazol-4-yl)sulfonyl)piperidine-3-carboxamide], the IC50 in experiment [1] was 2000 to 5000 nM; on C5aR, greater than 10 µM.

Take `Cc1ccc(NC(=O)[C@H]2CCCN(S(=O)(=O)Cc3ccccc3)[C@H]2c2ccc(NC3CCCC3)cc2)cc1C(F)(F)F` [Compound 40, (2R,3S)-1-(benzylsulfonyl)-2-(4-(cyclopentylamino)phenyl)-N-(4-methyl-3-(trifluoromethyl)phenyl)piperidine-3-carboxamide]: the 50% inhibitory concentration (IC50) is less than 50 nM in experiment [1] and 2 to 10 µM on C5aR.

As for `Cc1cccc(F)c1C(=O)N1[C@@H]2CCC[C@@H]2C[C@H](C(=O)Nc2ccc3cnn(C)c3c2)[C@@H]1c1ccc(NC2CCCC2)cc1` [Compound 50, (2R,3S,4aR,7aR)-2-(4-(cyclopentylamino)phenyl)-1-(2-fluoro-6-methylbenzoyl)-N-(1-methyl-1H-indazol-6-yl)octahydro-1H-cyclopenta[b]pyridine-3-carboxamide], the results for the IC50 (in experiment [1]; on C5aR) were less than 50 nM and 0.5 to 2 µM, respectively.

`Cc1cccc(F)c1C(=O)N1[C@@H]2CCC[C@@H]2C[C@H](C(=O)NC2CCOCC2)[C@@H]1c1ccc(NC2CCCC2)cc1` [Compound 52, (2R,3S,4aR,7aR)-2-(4-(cyclopentylamino)phenyl)-1-(2-fluoro-6-methylbenzoyl)-N-(tetrahydro-2H-pyran-4-yl)octahydro-1H-cyclopenta[b]pyridine-3-carboxamide]: the concentration for half-maximal inhibition (IC50) is 2000 to 5000 nM in experiment [1] and 2 to 10 µM at C5aR.

Turning to `Cc1ccc(NC(=O)[C@H]2CCCN(c3ncnc4cccnc34)[C@H]2c2ccc(NC3CCCC3)cc2)cc1C(F)(F)F` [Compound 161, (2R,3S)-2-(4-(cyclopentylamino)phenyl)-N-(4-methyl-3-(trifluoromethyl)phenyl)-1-(pyrido[3,2-d]pyrimidin-4-yl)piperidine-3-carboxamide], the IC50 in experiment [1] lay in the range of 50 to 500 nM; at C5aR it was 2 to 10 µM.

`Cc1ccc(NC(=O)[C@H]2CCCN(c3ncnc4cccnc34)[C@H]2c2ccc(N(C(=O)OCc3ccccc3)C3CCCC3)cc2)cc1C(F)(F)F` [Compound 166, benzyl cyclopentyl(4-((2R,3S)-3-((4-methyl-3-(trifluoromethyl)phenyl)carbamoyl)-1-(pyrido[3,2-d]pyrimidin-4-yl)piperidin-2-yl)phenyl)carbamate]: the IC50 was in the range of 2000 to 5000 nM in experiment [1] and 2 to 10 µM on C5aR.

For the compound `Cc1ccc(NC(=O)[C@H]2CCCN(C(=O)c3c(C)noc3C)[C@H]2c2ccc(NC3CCCC3)cc2)cc1C(F)(F)F` [Compound 190, (2R,3S)-2-(4-(cyclopentylamino)phenyl)-1-(3,5-dimethylisoxazole-4-carbonyl)-N-(4-methyl-3-(trifluoromethyl)phenyl)piperidine-3-carboxamide], the values for the IC50 (in experiment [1]; on C5aR) were 500 to 2000 nM and 2 to 10 µM, respectively.

As for `Cc1ccc(NC(=O)[C@H]2CCCN[C@H]2c2ccc(NC3CCCC3)cc2)cc1C(F)(F)F` [Compound 200, (2R,3S)-2-(4-(cyclopentylamino)phenyl)-N-(4-methyl-3-(trifluoromethyl)phenyl)piperidine-3-carboxamide], the IC50 in experiment [1] is greater than 5000 nM; on C5aR, 2 to 10 µM.

Regarding `Cc1cccc(F)c1C(=O)N1C2CCCC2CC(C(=O)Nc2ccc3c(c2)CCN(C(=O)OC(C)(C)C)C3)C1c1ccc(NC2CCCC2)cc1` (stereo not drawn) [Compound 202, tert-butyl 6-cis-2-(4-(cyclopentylamino)phenyl)-1-(2-fluoro-6-methylbenzoyl)octahydro-1H-cyclopenta[b]pyridine-3-carboxamido)-3,4-dihydroisoquinoline-2(1H)-carboxylate], the IC50 was greater than 5000 nM in experiment [1] and 2 to 10 µM on C5aR.
